Data on four molecules can be found in patent publication US6172112A, “Retinoids and use thereof” (priority 1999, dated 2001).

The subject of data set [1] is NB4 cells. Conditions: alone; previously shown by Breitman and coworkers; cited from earlier work.
The subject of data set [2] is NB4 cells. The data set can be described thus: retinoid induction of differentiation of NB4 cells (NBT). It counts as cell-based, Human. As to conditions: for EC30: read-out: ED30 NB4 cell differentiation; for EC50: NB-4, 96 h, read-out: ED50 (nM) NB4. The method, then:
NB4 cells were obtained from Dr. Waxman after he received them from Dr. M. Lanotte. […] The cell were grown at 37° C. in a humidified atmosphere of 5% CO2 in air. Cell density was estimated on an electronic particle counter (Coulter electronic, Hialeah, Fla.) and cell viability with trypan bleu dye exclusion.
(§1) Human leukemia cell line HL-60 and NB4 were used for measuring the ability of retinoids to induce terminal differentiation. Both cell lines are predominantly promyelocytes and are induced by retinoic acid to mature to cells with many characteristics of mature granulocytes. The induction of this differentiation is the basis for assaying one of the biological activities of retinoic acid analogues. For the differentiation assay, HL-60 or NB4 cells were grown in nutrient medium with fetal bovine serum as detailed by Breitman (15).
(§2) The percentage of cells that gained this marker was measured microscopically. The percentage of positive cells was then plotted as a function of the retinoid concentration to determine ED50 and ED30 values used in the formation of isoboles.

Another data set has as its system HL-60 cells. The experiment in a line: retinoid induction of differentiation of HL-60 cells (NBT). It counts as cell-based. Conditions: Homo sapiens, HL-60, 96 h; 4-day induction of differentiation; read-out: ED50 (nM) HL-60. As to the method: as §1, §2
The subject of a further data set is JMML cells. The data set can be described thus: inhibition of JMML spontaneous CFU-GM colony formation. Conditions: Homo sapiens.
Data set [3] has as its system MNU-induced mammary cancers. The experiment in a line: efficacy on MNU-induced mammary cancers. It counts as in vivo, Sprague-Dawley rats. Conditions: 200 mg/kg diet.
The nature of a further data set: in vivo toxicity. Conditions: preliminary data.
The subject of data set [4] is NB4 cells. The experiment in a line: retinoid metabolism in NB4 cells. It counts as in vitro ADME.
Data set [5] in a line: body weight in MNU mammary cancer study.
The target of another data set is T1, RARα (Homo sapiens, UniProt P10276).
T1 sequence (P10276 1-462): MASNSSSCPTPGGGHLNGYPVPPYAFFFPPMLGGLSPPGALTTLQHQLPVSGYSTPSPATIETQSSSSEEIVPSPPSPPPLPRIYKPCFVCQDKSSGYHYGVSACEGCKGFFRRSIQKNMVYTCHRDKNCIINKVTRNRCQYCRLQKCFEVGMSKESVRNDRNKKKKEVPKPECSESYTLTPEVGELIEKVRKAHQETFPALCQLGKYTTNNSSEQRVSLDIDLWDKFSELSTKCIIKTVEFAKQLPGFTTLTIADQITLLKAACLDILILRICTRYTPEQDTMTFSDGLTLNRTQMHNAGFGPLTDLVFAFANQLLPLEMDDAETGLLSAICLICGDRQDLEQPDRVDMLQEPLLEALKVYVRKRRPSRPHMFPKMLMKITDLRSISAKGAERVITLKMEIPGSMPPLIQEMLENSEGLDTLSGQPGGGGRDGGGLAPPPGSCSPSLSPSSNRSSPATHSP
Conditions: CV-1 cells.

For the next data set, the target named is T2, chick skin CRABP (Gallus gallus, UniProt A0A8V1AB82).
T2 sequence (A0A8V1AB82 88-225): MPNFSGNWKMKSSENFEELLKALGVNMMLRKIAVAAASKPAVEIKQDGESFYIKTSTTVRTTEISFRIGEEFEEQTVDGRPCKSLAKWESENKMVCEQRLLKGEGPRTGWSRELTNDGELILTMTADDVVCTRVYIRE
The experiment in a line: chick skin CRABP radioligand binding assay. Conditions: [3H]-(all-E)-RA radioligand.

The subject of data set [6] is acute promyelocytic leukemia (APL). Conditions: patients with APL; cited from earlier work.
Data set [7] concerns mouse skin papilloma. As to conditions: 45.9 nmol dose.
Description: The mouse skin antipapilloma assay measured the ED50 values for retinoid tumor inhibition on the dorsal skin of mice. The inhibition of mouse skin papilloma by retinoids was performed according to a modification of the procedure developed by Verma and Boutwell (14) as reported previously by Muccio et al. (8).
The UAB30 retinoids were evaluated next for their activity in preventing the chemical induction of papillomas on mouse skin (14).
The subject of data set [8] is mouse skin papilloma. Conditions: ref (8); cited from earlier work.
The mark [9] stands for this setting: read-out: normalized percent inhibition of CFU-GM colony growth, patient J83 (%).
Setting [10] is: read-out: normalized percent inhibition of CFU-GM colony growth, patient J84 (%).

“Also recorded” adds a separate entry of the source. Like-named read-outs stand apart in the source and are kept apart here.

As a reminder, the inhibition is how much of the control response was suppressed. Broadly, the IC50 is the concentration that gives 50% inhibition. Read a low IC50 as inhibition by little substance.

Description for JMML cells: Mononuclear cells were separated by density gradient centrifugation, washed, and frozen in aliquots. […] No growth factors or other exogenous stimuli were added to the cultures. UAB retinoids and retinoic acid isomers were dissolved in either 100% ethanol or DMSO. Appropriate dilutions were made, and controls using the respective ethanol or DMSO concentration were set up in parallel. Varying doses of retinoids were added only once, 24 hours after initiation of the soft agar assays, by pipetting the retinoid solution on top of the soft agar and allowing the solution to enter the agar and interact with the cells by diffusion. The cultures were incubated for 14 days at 37° C. in a humidified atmosphere with 5% CO2.
Description for RARα: The antagonistic effects of UAB30 retinoids on the transcription of RARα were determined in CV-1 cells. The methods are nearly identical to those used to perform transcriptional assays. […] After 24 hours, cells were harvested and the transcriptional effects were measured relative CAT activity, after correction with β-gal activity for transfection efficiency. […] All experiments were performed in triplicate, and the data were averaged. […] These assays were performed in CV-1 cells with the RAR or RXR gene and the chloramphenicol acetyltransferase (CAT) reporter gene containing TREpal with a thymidine kinase promoter [(TREpal)2 -tk-CAT]. Twenty-four hours after transfection, cells were treated with a single dose of retinoid and the cell extracts were assayed for b-galactosidase and CAT activity. The antagonistic effects of UAB30 retinoids on the transcription of RAR-α were also determined in CV-1 cells. The methods are nearly identical to those used to perform transcriptional assays. These studies utilized the CAT reporter gene [(TREpal)2 -tk-CAT]. […] After 24 hours, cells were harvested and the transcriptional effects were measured in relative CAT activity, after correction with β-galactosidase activity for transfection efficiency. […] Experiments were performed in triplicate and the data were averaged.

Consider `CC1=C(/C=C/C(C)=C/C=C/C(C)=C/C(=O)Nc2ccc(O)cc2)C(C)(C)CCC1` [4-HPR, 4-hydroxyphenylretinamide], for which, in the data set on NB4 cells [1], the “NB4 cell differentiation” value is listed as “does not induce NB4 cells to differentiate”.
Take `CC(=C/C=C/C(C)=C/C(=O)O)/C=C1\CCCc2ccccc21` [(9Z)-UAB30, (2E,4E,6E,8E)-8-(3',4'-Dihydro-1'(2'H)-naphthalen-1'-ylidene)3,7-dimethyl-2,4,6-octatrienoic acid]: the EC30 in the data set on NB4 cells [2] (Homo sapiens, NB-4, 72 h) is above 10000 µM. In addition, the EC50 in the data set on NB4 cells [2] (Homo sapiens) is 10000 nM; with HL-60 cells, 8000 nM. In the data set on NB4 cells [2] (retinoid alone), the “NB4 cell differentiation” value was “no effect”. Besides, the inhibition at 0.1 µM in the data set with JMML cells (setting [9]) stood at 76%; with JMML cells (setting [10]) it was 44%. For the same molecule, the inhibition at 1 µM is 79% in the data set with JMML cells (setting [9]) and 39% in the data set with JMML cells (setting [10]). Also, the inhibition at 0.01 µM in the data set on JMML cells (setting [10]) turned out to be 3%. Moreover, in data set [3], the “growth of MNU-induced mammary cancers” value is given as “inhibited the growth of the MNU-induced mammary cancers”. Also, the “average mammary tumor weight/rat” value is given as 0.05 grams in data set [3] (26 days post MNU); 0.05 grams in data set [3] (33 days post MNU); 0.10 grams in [3] (40 days post MNU); 0.30 grams in data set [3] (47 days post MNU); 0.45 grams in data set [3] (54 days post MNU); 0.55 grams in [3] (61 days post MNU). The “average mammary tumor weight/rat” value in data set [3] (68 days post MNU) is reported as 0.55 grams; in data set [3] (75 days post MNU) it was 0.55 grams; in data set [3] (82 days post MNU), 0.70 grams; in data set [3] (89 days post MNU), 0.90 grams; in data set [3] (96 days post MNU), 1.00 grams; in [3] (103 days post MNU), 1.35 grams. Moreover, the “average mammary tumor weight/rat” value in [3] (110 days post MNU) was determined as 1.75 grams; in data set [3] (117 days post MNU), 2.00 grams; in data set [3] (124 days post MNU) it was 2.20 grams; in [3] (131 days post MNU) it was 2.35 grams. Moreover, in the data set “in vivo toxicity”, the “toxicity” value was “much less toxic than 9-cis-retinoic acid”. For the same molecule, the “metabolism / metabolic stability” value in the data set with NB4 cells [4] was “metabolically stable for 5 days”. The “overall body growth” value in data set [5] (200 mg/kg diet) is reported as “no obvious effect”. Further, the average body weight/rat worked out at 133 grams in data set [5] (43 days of age, 200 mg/kg diet from day 53); 158 grams in data set [5] (57 days of age, 200 mg/kg diet); 174 grams in data set [5] (64 days of age, 200 mg/kg diet); 188 grams in data set [5] (71 days of age, 200 mg/kg diet); 197 grams in data set [5] (78 days of age, 200 mg/kg diet); 203 grams in data set [5] (85 days of age, 200 mg/kg diet). For the same molecule, the average body weight/rat in [5] (92 days of age, 200 mg/kg diet) was 210 grams; in data set [5] (99 days of age, 200 mg/kg diet), 211 grams; in data set [5] (106 days of age, 200 mg/kg diet), 215 grams; in data set [5] (113 days of age, 200 mg/kg diet), 216 grams; in data set [5] (120 days of age, 200 mg/kg diet) it was 218 grams; in [5] (127 days of age, 200 mg/kg diet), 223 grams. The average body weight/rat in [5] (134 days of age, 200 mg/kg diet) turned out to be 227 grams; in data set [5] (141 days of age, 200 mg/kg diet) it was 236 grams; in data set [5] (149 days of age, 200 mg/kg diet), 234 grams; in data set [5] (155 days of age, 200 mg/kg diet) it was 236 grams; in data set [5] (162 days of age, 200 mg/kg diet), 238 grams; in data set [5] (169 days of age, 200 mg/kg diet) it was 242 grams. Further, the average body weight/rat in [5] (176 days of age, 200 mg/kg diet) came to 243 grams; in [5] (183 days of age, 200 mg/kg diet), 244 grams.
As to `CCCCCCCOc1cc2c(cc1/C(C)=C/c1ccc(C(=O)O)cc1)C(C)(C)CCS2(=O)=O` [Ro-41-5253], at RARα, the “antagonism of (all-E)-RA induced RARα transcription” value is reported as “two-fold more active; also recorded: exhibited antagonism at each concentration of (all-E)-RA”.
In turn, `CC1=C(/C=C/C(C)=C/C=C/C(C)=C/C(=O)O)C(C)(C)CCC1` [(all-E)-RA, all-trans-retinoic acid, reference compound] registered an IC50 at chick skin CRABP of 0.6 µM. In addition, the EC50 with NB4 cells [2] (Homo sapiens, 4-day induction of differentiation) is 610 nM; in the data set on HL-60 cells, 120 nM. Besides, the EC30 in the data set with NB4 cells [2] (in combination with 9-cis-UAB30 (1:10), day 3) amounted to 0.05 µM; in the data set with NB4 cells [2] (in combination with all-trans-UAB30 (1:10)) it was 2.8 µM; in the data set with NB4 cells [2] (retinoid alone, 3 days), 0.81 µM. The complete remission rate in data set [6] is 90%. Besides, the inhibition at 0.1 µM came out at 74% in the data set with JMML cells (read-out: normalized percent inhibition of CFU-GM colony growth, patient J43 (%), 10^-7 M) and 88% in the data set on JMML cells (read-out: normalized percent inhibition of CFU-GM colony growth, patient J83 (%), 10^-7 M). The inhibition at 0.01 µM in the data set with JMML cells (read-out: normalized percent inhibition of CFU-GM colony growth, patient J84 (%), 10^-8 M) came to 33%. For the same molecule, the inhibition at 1 µM is 85% in the data set with JMML cells (read-out: percent inhibition of CFU-GM colony growth (not normalized), 10^-6 M, J43 patient cells); 78% in the data set on JMML cells (read-out: percent inhibition of CFU-GM colony growth (not normalized), 10^-6 M, J83 patient cells); 61% in the data set with JMML cells (read-out: percent inhibition of CFU-GM colony growth (not normalized), 10^-6 M, J84 patient cells). The “prevention of papilloma (tumor) formation” value with mouse skin papilloma [7] is listed as 95%. Moreover, in the data set on mouse skin papilloma [8], the “ED50 skin antipapilloma assay” value is 3.0 nmol.
